# Reference: US12304900B2, “Islet cell manufacturing compositions and methods of use” (Vertex Pharmaceuticals Incorporated, priority 2017, dated 2025)
# Tested on: PGT cells (Stage 2 cells)
# Experiment: Flow cytometry of cell constituent at Stage 4-complete after signaling factors at Stage 3
# Type: cell-based
# Excerpt: In the meantime, LDN193189 also promoted chromogranin A (CHGA) expression in Stage 4-complete cells.
# [1] = Stage 4-complete, 0.5 μM DMH-1 alone vs no DMH-1, FIG. 6B
smiles,measurement,setting,value
"c1ccc2c(-c3cnn4cc(-c5ccc(N6CCNCC6)cc5)cnc34)ccnc2c1 [LDN193189, 4-[6-(4-piperazin-1-ylphenyl)pyrazolo[1,5-a]pyrimidin-β-yl]quinolone]",chromogranin A (CHGA) expression,"Stage 4-complete cells, LDN193189 at Stage 3, FIG. 6A",promoted
same,percentage of CDX2-positive cells,"Stage 4-complete, LDN193189 at Stage 3 vs absence, FIG. 6A",clearly reduced
CC(C)Oc1ccc(-c2cnc3c(-c4ccnc5ccccc45)cnn3c2)cc1 [DMH-1],percentage of cells expressing CDX2,[1],reduced
same,percentage of cells expressing CHGA,[1],increased
